Experimental data from US20200171065A1, “METHOD FOR TREATING LIVER DISEASE WITH KINSENOSIDE” (HUAZHONG UNIVERSITY OF SCIENCE AND TECHNOLOGY, priority 2017, published 2020).
Entries after “also recorded” stand apart in the source; their conditions may differ. Read-outs that look alike come from different tables or passages of the source.

How the values were obtained:
[1] = tested on: C57BL/6J mice with alcoholic fatty liver; assay: Alcoholic fatty liver (5% alcoholic Lieber-DeCarli liquid diet); format: in vivo
Protocol: C57BL/6J mice aged 7-8 weeks were raised in the SPF experimental animal center of Tongji Medical College of Huazhong University of Science and Technology. They were provided with standard diet and drinking water. The room temperature was controlled at 23±2° C. After 7 days of adaptive feeding, they were given drugs by intragastric administration. […] The mice were fed with a 5% alcoholic Lieber-DeCarli liquid diet and developed alcoholic fatty liver disease. The mice were administered with alcohol and drugs. Spherically, drinking water were administered to the control group and the model group, and different doses were administered to the dose groups.

[2] = tested on: C57BL/6 mice with HFFD nonalcoholic fatty liver; assay: Nonalcoholic fatty liver induced by high-fat and high fructose diet (HFFD); format: in vivo
Protocol: 60 SPF male C57BL/6 mice aged 4 weeks were raised in the SPF experimental animal center of Tongji Medical College of Huazhong University of Science and Technology. They were provided with standard diet and drinking water. The room temperature was controlled at 23±2° C. After 7 days of adaptive feeding, the mice were randomly divided into a control group with normal diet and a high-fat and high fructose diet group (40% fat, 40% fructose, 20% protein, HFFD). […] The mice were fed according to the groups, and the control group and the model group were fed with the same dose of normal saline for 4 weeks. […] The development of nonalcoholic fatty liver disease is closely related to the lipid levels of the liver and serum.

[3] = tested on: C57 mice with MCD-induced NASH; assay: Nonalcoholic steatohepatitis induced by methionine choline deficiency (MCD) feed; format: in vivo
Protocol: 150 SPF male mice C57 aged 6-8 weeks were raised in the SPF experimental animal center of Tongji Medical College of Huazhong University of Science and Technology. They were provided with standard diet and drinking water. The room temperature was controlled at 23±2° C. After 7 days of adaptive feeding, they were given drugs by intragastric administration. […] The control groups were administered with normal diet. The model group and each administration group were fed with methionine choline deficiency (MCD) feed. Each group was administrated by gavage. The control group and the model group were given equal amount of thrice steamed water once a day for 8 weeks. The mice were weighed every three days. The hair color, state, food, water and defecation of each group were observed, and the death of each group was recorded. At the end of the 2nd week, 4th week and 6th week, three mice were randomly selected and killed to observe the modeling state. At the end of the 8th week, after the last administration, all mice were provided with no food but water for 12 hours, and all indexes were measured.

[4] = tested on: FVB/N mice with serine/threonine kinase (AKT) overexpressed in the liver (NAFL-NASH-liver fibrosis); conditions: for Diameter of hepatic portal vein / Diameter of inferior vena cava / Length of the spleen / Oblique diameter of right lobe of liver / Thickness of the left lobe of liver / Thickness of the spleen: KD 30 mg/kg, type B ultrasound
Protocol: The serine/threonine kinase (AKT) and transposase plasmids were injected into the liver of the mice by a transposition system through hydrodynamics. The serine/threonine kinase was specifically overexpressed in the liver, and the mice except the control group were modeled. One week later, nonalcoholic fatty liver (NAFL) was formed; two weeks later, steatohepatitis (NASH) was formed; and four weeks later, a primary hepatic fibrosis model was established. In the formation of NAFL-NASH-liver fibrosis, the therapeutic effect of KD was observed.

[5] = low, medium and high dose of KD

SMILES: O=C1C[C@@H](O[C@@H]2O[C@H](CO)[C@@H](O)[C@H](O)[C@H]2O)CO1 [KD]
- fat vacuoles / histopathological damage of liver (H&E staining) ([1]; 40 and 20 mg/kg KD): could reduce histopathological damage of liver and reduce fat vacuoles in liver of mice; also recorded: fat vacuoles were reduced
- SOD activity in the liver / oxidative stress injuries ([1]; AFL mice): increased the activity of superoxide dismutase (SOD) in the liver of AFL and ALF mice; also recorded: could reverse the oxidative stress injuries
- serum ALT ([1]; AFL mice): decreased the serum alanine aminotransferase (ALT) of AFL and ALF mice
- secretion of TNF-α and IL-6 ([1]; high and medium dose groups): inhibited the secretion of TNF and IL6 in AFL and ALF; also recorded: reduced the secretion of the inflammatory cytokine TNF-α and IL-6
- therapeutic effect on alcoholic fatty liver (overall) ([1]; mouse, in vivo): has a good therapeutic effect on alcoholic fatty liver and alcoholic liver fibrosis
- free fatty acid level in the serum ([2]; each dose of KD): could significantly inhibit the level of free fatty acids; also recorded: could significantly inhibit the free fatty acid level in the serum
- triglyceride in the liver ([2]; each dose of KD): could significantly inhibit the level of triglyceride in the liver
- expression level of total macrophage marker molecule F4/80 ([2]; high dose KD): inhibited the expression level of total macrophage marker molecule F4/80; also recorded: could inhibit the expression level of the total macrophage marker molecule F4/80
- liver lipid degeneration, size and number of lipid droplets (photos, H&E staining) ([2]; high, middle and low dose groups, 4 weeks): could significantly reduce liver lipid denaturation induced by high-fat and high-fructose diet and reduce the size and number of lipid droplets in liver; also recorded: could significantly reduce the lipid degeneration and inhibit the size and number of lipid droplets
- secretion of anti-inflammatory cytokine IL-10 in serum [2, 5]: promoted the secretion of the anti-inflammatory cytokine IL-10; also recorded: increase the secretion of anti-inflammatory cytokine IL-10
- secretion of proinflammatory cytokines IL-6, MCP-1, IFN-γ, TNF-α and IL-2 in serum [2, 5]: significantly inhibited the secretion of pro-inflammatory cytokines IL6, MCP-1, IFN-γ, TNF-α and IL-2; also recorded: can significantly inhibit the secretion of proinflammatory cytokines IL-6, MCP-1, IFN-γ, TNF-α and IL-2
- total cholesterol in liver and serum ([2]; low, medium and high doses of KD): significantly inhibited; also recorded: significantly reduced
- serum LDL level ([2]; low-dose KD): could significantly inhibit the level of serum LDL in mice
- expression of COX-2 and M1-type macrophage molecules IL6 and IFN ([2]; medium and high dose KD): significantly inhibited the expression level of inflammatory molecule COX-2; also recorded: could significantly inhibit the expression level of inflammatory molecule COX-2 and the inflammatory M1-type macrophage molecules IL6 and IFN
- expression of M2-type macrophage marker molecules CD206, ARG1 and IL1β ([2]; medium and high dose KD): promoted the expression of anti-inflammatory M2-type macrophage marker molecules CD206, ARG1 and IL1; also recorded: promote the expression of anti-inflammatory M2-type macrophage marker molecules CD206, ARG1 and IL1β
- therapeutic effect on nonalcoholic fatty liver (overall, vs silymarin 50 mg/kg) ([2]; mouse, in vivo): the therapeutic effect was better than that of silymarin; also recorded: significantly better than that of silymarin; also recorded: has a good therapeutic effect on non-alcoholic fatty liver
- lipid droplet area of sections (Image J), compared with the positive group ([3]; 8 w, high-dose KD group): even better than that of the positive group
- liver fat accumulation (oil red O staining) ([3]; 40, 20 and 10 mg/kg KD): Fat accumulation in liver was significantly reduced
- liver cell apoptosis / Cleaved Caspase3 (CC3) protein (immunohistochemical staining) ([3]; KD group at different doses): could reduce the liver cell apoptosis to varying degrees, thus reducing the expression of liver CC3 protein
- expression of Bcl-2, Bax and Casp3 genes in liver (RT-qPCR) ([3]; KD high-dose group): significantly increased the expression of anti-apoptotic gene Bcl-2, decreased the expression of pro-apoptotic gene Bax, reduced the expression of apoptotic marker gene Casp3
- fiber formation (Masson staining, fiber area) ([3]; all the KD groups, 8 weeks): the liver fiber content decreased, and the effect of KD was even better than that of the positive drug group; also recorded: had inhibitory effect on the fiber formation
- liver coefficient (liver index) ([3]; different doses of KD): could reduce liver fat and normalize the liver index; also recorded: reduce liver coefficient
- ALT and AST levels in the serum ([3]; different doses of KD, 8 weeks): the AST and ALT levels were decreased in each dose group of KD; also recorded: could significantly reduce the ALT and AST levels in the serum
- expression of fibrotic marker protein α-SMA (Western blot, immunohistochemistry) ([3]; each KD dose group): could reduce the expression of α-SMA; also recorded: could be reduced in each KD dose group
- lipid content ([3]; each KD group): slightly increased
- serum HA and LN (ELISA) ([3]; each dose group of KD): could significantly reduce the content of HA and LN; also recorded: could reduce the content of HA and LN in varying degrees
- expression of Bcl-xl and BAX proteins in liver (Western Blot) ([3]; mouse, in vivo): the expression of anti-apoptotic protein Bcl-xl was increased, and the proapoptotic protein BAX was inhibited
- expression of MMP-13 in the liver (qPCR) ([3]; mouse, in vivo): increase the expression of matrix metalloproteinase-13 (MMP-13)
- expression of pro-apoptotic and anti-apoptotic genes and proteins ([3]; mouse, in vivo): could also reduce the expression of pro-apoptotic genes and proteins, and increase the expression of anti-apoptotic genes
- expression of α-SMA, Col I, TIMP-1 and TGF-β in the liver (qPCR) ([3]; mouse, in vivo): could effectively inhibit the expression
- inflammatory infiltration of liver (HE staining) ([3]; mouse, in vivo): could inhibit the inflammatory infiltration of liver
- oxidative stress (SOD, MDA in liver) ([3]; mouse, in vivo): SOD content in the liver increased and oxidative product MDA decreased; also recorded: could reverse the oxidative stress injuries
- shear wave velocity / liver hardness (SWE) ([3]; mouse, in vivo): the liver hardness of the KD group decreased; also recorded: could significantly reduce the shear wave velocity
- therapeutic effect on MCD-induced NASH (overall, vs silymarin and Fuzheng Huayu capsule) ([3]; mouse, in vivo): dose-dependent, and its effect was similar to that of the drugs silymarin and Fuzheng Huayu capsule, and was better than that of the drugs in some indexes; also recorded: has a good therapeutic effect on MCD-induced NASH
- liver histopathological damage (H&E staining) ([4]; 30, 20 and 10 mg/kg KD): could reduce liver histopathological damage
- Diameter of hepatic portal vein ([4]; Liver fibrosis stage): 0.65 ± 0.07 mm
- Diameter of inferior vena cava ([4]; Liver fibrosis stage): 1.15 ± 0.07 mm
- Length of the spleen ([4]; Liver fibrosis stage): 5.40 ± 0.71 mm
- Oblique diameter of right lobe of liver ([4]; Liver fibrosis stage): 8.35 ± 0.78 mm
- Thickness of the left lobe of liver ([4]; Liver fibrosis stage): 3.65 ± 0.49 mm
- Thickness of the spleen ([4]; Liver fibrosis stage): 1.50 ± 0.14 mm
- Diameter of hepatic portal vein ([4]; NAFL stage): 0.75 ± 0.07 mm
- Diameter of inferior vena cava ([4]; NAFL stage): 1.50 ± 0.14 mm
- Length of the spleen ([4]; NAFL stage): 5.40 ± 0.99 mm
- Oblique diameter of right lobe of liver ([4]; NAFL stage): 7.25 ± 0.21 mm
- Thickness of the left lobe of liver ([4]; NAFL stage): 4.35 ± 1.20 mm
- Thickness of the spleen ([4]; NAFL stage): 1.65 ± 0.07 mm
